Legend:
[1] = Lipophilicity, logD of the compound in Octanol/potassium phosphate buffer at pH 7.4 after 1 hr by shake-flask based LC-MS/MS analysis; type: physicochemical; details: octanol/water, pH 7.4, 1 h
[2] = Stability in human hepatocytes assessed as intrinsic clearance at 2 uM measured per 10^6 cells incubated at 15 to 120 mins by LC-MS/MS analysis; type: ADME, cell-based, Hepatocyte; details: time 15-120 min
[3] = Stability in mouse hepatocytes assessed as intrinsic clearance at 2 uM measured per 10^6 cells incubated at 15 to 120 mins by LC-MS/MS analysis; type: ADME, cell-based, Hepatocyte; details: time 15-120 min
[4] = Oral bioavailability in C57BL/6 mouse at 1 mg/kg, iv or 10 mg/kg by HPLC analysis; type: ADME, organism-based; details: in vivo
[5] = Volume of distribution in C57BL/6 mouse at 1 mg/kg, iv or 10 mg/kg, po by HPLC analysis; type: ADME, organism-based; details: in vivo

A logD [1] of 2.4 was found for `C[C@H]1O[C@@H](S[C@@H]2O[C@H](CO)[C@H](O)[C@H](n3cc(-c4cccc(F)c4)nn3)[C@H]2O)[C@H](O)[C@@H](n2cc(-c3cccc(F)c3)nn2)[C@H]1O` in this work.
A logD [1] of 4.6, a CLH [2] of 0.7 µL/min and a CLH [3] of 0.8 µL/min were found for `OC[C@H]1O[C@H](Sc2ccc(Cl)c(Cl)c2)[C@H](O)[C@@H](n2cc(-c3cc(F)c(F)c(F)c3)nn2)[C@H]1O` in this work. The bioavailability [4] was 75% and the Vd [5] was 0.4 L/kg.
A logD [1] of 2.28 was found for `CC(=O)Nc1ccc(S[C@H]2O[C@H](CO)[C@H](O)[C@H](n3cc(-c4cc(F)c(F)c(F)c4)nn3)[C@H]2O)cc1` in this work.
A logD [1] of 3.4 was found for `CCCCSC[C@H]1O[C@@H](S[C@@H]2O[C@H](CO)[C@H](O)[C@H](n3cc(-c4cccc(F)c4)nn3)[C@H]2O)[C@H](O)[C@@H](n2cc(-c3cccc(F)c3)nn2)[C@H]1O` in this work.
A logD [1] of 3.7, a CLH [2] of 0.8 µL/min and a CLH [3] of 1.1 µL/min were found for `N#Cc1ccc(S[C@H]2O[C@H](CO)[C@H](O)[C@H](n3cc(-c4cc(F)c(F)c(F)c4)nn3)[C@H]2O)cc1Cl` in this work. For the same compound, the bioavailability [4] was 95% and the Vd [5] was 0.9 L/kg.
A logD [1] of 2.1 was found for `OC[C@H]1O[C@@H](S[C@@H]2O[C@H](CO)[C@H](O)[C@H](n3cc(-c4cccc(F)c4)nn3)[C@H]2O)[C@H](O)[C@@H](n2cc(-c3cccc(F)c3)nn2)[C@H]1O` [OLITIGALTIN] in this work.
A logD [1] of 3, a CLH [2] of 0.15 µL/min and a bioavailability [4] of 68% were found for `OC[C@H]1O[C@H](Sc2cncc(Br)c2)[C@H](O)[C@@H](n2cc(-c3cc(F)c(F)c(F)c3)nn2)[C@H]1O` [SELVIGALTIN] in this work. It also gave a Vd [5] of 1.1 L/kg.
